Results taken from patent US11090304B2 (Amgen Inc., priority 2018, dated 2021).

What was measured:
[1] = test system: Phosphorylation of ERK1/2 in MIA PaCa-2 cells; test: Phospho-ERK1/2 MSD assay in MIA PaCa-2 cells; format: cell-based; conditions: Homo sapiens, MIA PaCa-2, 2 h, read-out: p-ERK IC50 (2 h; MIA PaCa-2), 2 h compound treatment
Summary of the method: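 Following a 2 or 4 h incubation with titrated compound, cells receive a 10 min pulse of 10 ng/mL EGF. Phospho-ERK1/2 in RIPA lysates is then quantified by MSD immunoassay, and IC50 values come from a four-parameter logistic model.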

[2] = target: GDP-bound KRAS protein (aa 1-169), containing both G12C and C118A amino acid substitutions (Homo sapiens, UniProt P01116, C118A/G12C); test: Coupled nucleotide exchange assay (SOS-mediated, AlphaScreen); format: biochemical; conditions: 5 min compound pre-incubation
Chain of GDP-bound KRAS protein (aa 1-169), containing both G12C and C118A amino acid substitutions (P01116 1-169 isoform P01116-2 G12C/C118A): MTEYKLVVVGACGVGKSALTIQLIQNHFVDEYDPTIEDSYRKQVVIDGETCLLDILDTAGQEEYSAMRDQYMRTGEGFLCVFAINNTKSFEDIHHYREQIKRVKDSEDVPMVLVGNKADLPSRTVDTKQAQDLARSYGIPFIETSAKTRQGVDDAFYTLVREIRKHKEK

IC50 [1] [nM]	Coupled exchange IC50 (5 min) [2]	Compound
92	0.055 | nda μM	C=CC(=O)N1CCN(c2nc(=O)n(-c3c(C)cccc3C3CC3)c3nc(-c4c(O)cccc4F)c(Cl)cc23)[C@@H](C)C1 [Example 55-15, 6-chloro-1-(2-cyclopropyl-6-methylphenyl)-7-(2-fluoro-6-hydroxyphenyl)-4-((2S)-2-methyl-4-(2-propenoyl)-1-piperazinyl)pyrido[2,3-d]pyrimidin-2(1H)-one]
2670	0.695 | nda μM	C=CC(=O)N1CCN(c2nc(=O)n(-c3cn(Cc4ccccc4)nc3C3CC3)c3nc(-c4c(O)cccc4F)c(Cl)cc23)[C@@H](C)C1 [Example 55-20, 1-(1-benzyl-3-cyclopropyl-1H-pyrazol-4-yl)-6-chloro-7-(2-fluoro-6-hydroxyphenyl)-4-((2S)-2-methyl-4-(2-propenoyl)-1-piperazinyl)pyrido[2,3-d]pyrimidin-2(1H)-one]
≥ 10000	0.444 | nda μM	C=CC(=O)N1CCN(c2nc(=O)n(-c3c[nH]nc3C3CC3)c3nc(-c4c(O)cccc4F)c(Cl)cc23)[C@@H](C)C1 [Example 55-21, 6-chloro-1-(3-cyclopropyl-1H-pyrazol-4-yl)-7-(2-fluoro-6-hydroxyphenyl)-4-((2S)-2-methyl-4-(2-propenoyl)-1-piperazinyl)pyrido[2,3-d]pyrimidin-2(1H)-one]

The next lines start with the compound.

Compound	IC50 [1] [nM]	Coupled exchange IC50 (5 min) [2]
C=CC(=O)N1CCN(c2nc(=O)n(-c3c(C)noc3C(C)C)c3nc(-c4ccc(F)cc4F)c(Cl)cc23)[C@@H](C)C1 [Example 55-12, 6-chloro-7-(2,4-difuorophenyl)-1-(3-methyl-5-(2-propanyl)-1,2-oxazol-4-yl)-4-((2S)-2-methyl-4-(2-propenoyl)-1-piperazinyl)pyrido[2,3-d]pyrimidin-2(1H)-one]	775	0.583 | nda μM
C=CC(=O)N1CCN(c2nc(=O)n(-c3c(C)ncnc3C(C)C)c3nc(-c4ccccc4F)c(Cl)cc23)[C@@H](C)C1 [Example 55-13, 6-chloro-7-(2-fluorophenyl)-1-(4-methyl-6-(2-propanyl)-5-pyrimidinyl)-4-((2S)-2-methyl-4-(2-propenoyl)-1-piperazinyl)pyrido[2,3-d]pyrimidin-2(1H)-one]	179	0.191 | nda μM
C=CC(=O)N1CCN(c2nc(=O)n(-c3c(C)cc(N(C)C)cc3C(C)C)c3nc(-c4ccccc4F)c(Cl)cc23)[C@@H](C)C1 [Example 55-16, 6-chloro-1-(4-(dimethylamino)-2-methyl-6-(2-propanyl)phenyl)-7-(2-fluorophenyl)-4-((2S)-2-methyl-4-(2-propenoyl)-1-piperazinyl)pyrido[2,3-d]pyrimidin-2(1H)-one]	199	0.154 | nda μM
C=CC(=O)N1CCN(c2nc(=O)n(-c3ncsc3C(C)C)c3nc(-c4c(O)cccc4F)c(Cl)cc23)[C@@H](C)C1 [Example 55-17, 6-chloro-7-(2-fluoro-6-hydroxyphenyl)-4-((2S)-2-methyl-4-(2-propenoyl)-1-piperazinyl)-1-(5-(2-propanyl)-1,3-thiazol-4-yl)pyrido[2,3-d]pyrimidin-2(1H)-one]	123	0.18 | nda μM
C=CC(=O)N1CCN(c2nc(=O)n(-c3scnc3C(C)C)c3nc(-c4ccccc4F)c(Cl)cc23)[C@@H](C)C1 [Example 55-18, 6-chloro-7-(2-fluorophenyl)-4-((2S)-2-methyl-4-(2-propenoyl)-1-piperazinyl)-1-(4-(2-propanyl)-1,3-thiazol-5-yl)pyrido[2,3-d]pyrimidin-2(1H)-one]	83	0.067 | nda μM
C=CC(=O)N1CCN(c2nc(=O)n(-c3ncsc3C(C)C)c3nc(-c4ccccc4F)c(Cl)cc23)[C@@H](C)C1 [Example 55-19, 6-chloro-7-(2-fluorophenyl)-4-((2S)-2-methyl-4-(2-propenoyl)-1-piperazinyl)-1-(5-(2-propanyl)-1,3-thiazol-4-yl)pyrido[2,3-d]pyrimidin-2(1H)-one]	191	0.22 | nda μM
